This note sets out measurements from US5403940A, “Vitamin D compound, method of preparing this compound and intermediate thereof” (Duphar International Research B.V., priority 1991, dated 1995).

In the assay the target is T1, calf thymus intracellular vitamin D receptor (VDR) (Bos taurus, UniProt Q28037).
T1 construct: calf thymus intracellular vitamin D receptor (VDR); from tissue; host or cells: calf thymus
T1 sequence (Q28037 1-426): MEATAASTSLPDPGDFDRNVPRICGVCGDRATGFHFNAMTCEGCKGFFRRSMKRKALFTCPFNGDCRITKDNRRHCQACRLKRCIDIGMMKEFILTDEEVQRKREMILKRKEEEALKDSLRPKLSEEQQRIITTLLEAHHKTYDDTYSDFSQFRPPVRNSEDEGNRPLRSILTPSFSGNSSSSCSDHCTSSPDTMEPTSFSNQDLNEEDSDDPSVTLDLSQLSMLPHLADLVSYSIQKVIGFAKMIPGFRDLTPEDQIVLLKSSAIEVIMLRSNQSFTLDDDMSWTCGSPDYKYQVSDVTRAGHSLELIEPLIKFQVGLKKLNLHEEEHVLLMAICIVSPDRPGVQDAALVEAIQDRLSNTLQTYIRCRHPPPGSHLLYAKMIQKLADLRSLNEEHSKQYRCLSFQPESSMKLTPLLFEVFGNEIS
Nature of the assay: Affinity towards the calf thymus intracellular vitamin D receptor, replacement of 3H-calcitriol. The format is binding. From the text: In this assay ^3 H-calcitriol (1α,25-dihydroxycholecalciferol), which is specifically bound to the VDR, is replaced by the tested compound.

On to `C=C1/C(=C\C=C2/CCC[C@]3(CO)[C@@H]([C@H](C)CCCC(C)(C)O)CC[C@@H]23)C[C@@H](O)C[C@@H]1O` [compound 46], for which the half-inhibitory concentration (IC50) (compound dissolved in ethanol, 10^-13 to 10^-7 M, 3H-calcitriol bound to VDR, read-out: IC50 value, i.e. 50% replacement of 3H-calcitriol) was determined as 250 pM. The “affinity to the VDR” value (conclusion drawn from the IC50) is recorded as “high affinity to the VDR”.

The IC50 is the concentration that inhibits the measured activity by half.
